# Structures can show the parent of a compound that is named as a salt.
# Legend:
# [1] = target: rhIDO (recombinant human IDO) (Homo sapiens, UniProt P14902); assay: Enzyme assay using rhIDO (rate of kynurenine production); assay type: biochemical; conditions: 2 h; final concentration of the compound 10 μM; rate relative to reaction without compound; read-out: rhIDO-mediated kynurenine production
# Method: Enzyme Assay Protocol Using rhIDO (Recombinant Human IDO)
# 4 μL of a compound solution was added to 176 μL of a rhIDO reaction solution (0.5 M potassium phosphate buffer (20 μL), 0.2 M ascorbic acid (20 μL), 0.5 mM methylene blue (4 μL), 10 mg/mL catalase (2 μL), H2O (128 μL), and rhIDO (2 μL)). The mixture was pipetted and preincubated at 37° C. for 10 minutes. Then, the whole amount was brought to 200 μL by the addition of 20 μL of a 2 mM aqueous tryptophan solution, and the mixture was pipetted again and reacted at 37° C. for 120 minutes. After the reaction, the enzymatic reaction was terminated by the addition of 40 μL of a 30% [v/v] aqueous trichloroacetic acid solution to the reaction solution. The mixture was well stirred by pipetting and heated at 50° C. for 15 minutes so that N-formylkynurenine was converted to kynurenine. The reaction solution thus heated was centrifuged (15,000 rpm, 5 min, 24° C.), and 150 μL of the supernatant was transferred to a transparent 96-well flat-bottomed plate, followed by the measurement of absorbance at 490 nm using SpectraMax MSSK (background measurement). After the measurement, a solution of 2% [w/v] p-dimethylbenzaldehyde in acetic acid was added at 150 μL/well and reacted for 5 minutes, followed by the measurement of absorbance at 490 nm again. The rate of kynurenine production was calculated according to the following expression. Rate of kynurenine production (%) for each compound in the case of using rhIDO={(Absorbance at 490 nm in the tryptophan-containing aqueous solution comprising rhIDO and the compound of the present invention−Absorbance of the background)/(Absorbance at 490 nm in the tryptophan-containing aqueous solution without the addition of the compound solution−Absorbance of the background)}×100 Enzyme Assay Protocol Using rhTDO (Recombinant Human TDO)
# [2] = target: rhTDO (recombinant human TDO) (Homo sapiens, UniProt P48775); assay: Enzyme assay using rhTDO (rate of kynurenine production); assay type: biochemical; conditions: 2 h; final concentration of the compound 10 μM; rate relative to reaction without compound; read-out: rhTDO-mediated kynurenine production
# Chain of rhTDO (recombinant human TDO) (P48775 whole entry): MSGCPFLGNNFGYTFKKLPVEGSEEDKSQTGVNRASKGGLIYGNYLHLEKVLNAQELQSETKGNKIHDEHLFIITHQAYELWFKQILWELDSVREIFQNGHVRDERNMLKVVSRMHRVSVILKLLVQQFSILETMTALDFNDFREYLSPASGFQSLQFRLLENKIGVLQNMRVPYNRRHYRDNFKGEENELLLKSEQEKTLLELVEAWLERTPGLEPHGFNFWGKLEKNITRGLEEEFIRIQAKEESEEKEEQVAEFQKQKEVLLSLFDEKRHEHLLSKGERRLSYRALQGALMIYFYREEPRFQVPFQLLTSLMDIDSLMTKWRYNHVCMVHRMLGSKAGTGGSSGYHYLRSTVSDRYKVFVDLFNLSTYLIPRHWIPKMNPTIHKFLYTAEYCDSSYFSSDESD
# Method: 4 μL of a compound solution was added to 176 μL of a rhTDO reaction solution (0.5 M potassium phosphate buffer (20 μL), 0.2 M ascorbic acid (20 μL), 0.5 mM methylene blue (4 μL), 10 mg/mL catalase (2 μL), H2O (128 μL), and rhTDO (2 μL)). The mixture was pipetted and preincubated at 37° C. for 10 minutes. Then, the whole amount was brought to 200 μL by the addition of 20 μL of a 20 mM aqueous tryptophan solution, and the mixture was pipetted again and reacted at 37° C. for 120 minutes. After the reaction, the enzymatic reaction was terminated by the addition of 40 μL of a 30% [v/v] aqueous trichloroacetic acid solution to the reaction solution. The mixture was well stirred by pipetting and heated at 50° C. for 15 minutes so that N-formylkynurenine was converted to kynurenine. The reaction solution thus heated was centrifuged (15,000 rpm, 5 min, 24° C.), and 150 μL of the supernatant was transferred to a transparent 96-well flat-bottomed plate, followed by the measurement of absorbance at 490 nm using SpectraMax M5 SK (background measurement). After the measurement, a solution of 2% [w/v] p-dimethylbenzaldehyde in acetic acid was added at 150 μL/well and reacted for 5 minutes, followed by the measurement of absorbance at 490 nm again. The rate of kynurenine production was calculated according to the following expression. Rate of kynurenine production (%) for each compound in the case of using rhTDO={(Absorbance at 490 nm in the tryptophan-containing aqueous solution comprising rhTDO and the compound of the present invention−Absorbance of the background)/(Absorbance at 490 nm in the tryptophan-containing aqueous solution without the addition of the compound solution−Absorbance of the background)}×100 IDO Cell-Based Assay Protocol
# IDO in A431 cells = target: T1, IDO in A431 cells (Homo sapiens, UniProt P14902); assay: IDO cell-based assay, kynurenine production in IFN-γ stimulated A431 cells; conditions: A-431, 24 h; final concentration of the compound 10 μM; rate relative to culture without compound
# T1 construct: endogenous in cells; host or cells: A431 cells, IFN-γ stimulated
# T1 sequence (P14902 whole entry): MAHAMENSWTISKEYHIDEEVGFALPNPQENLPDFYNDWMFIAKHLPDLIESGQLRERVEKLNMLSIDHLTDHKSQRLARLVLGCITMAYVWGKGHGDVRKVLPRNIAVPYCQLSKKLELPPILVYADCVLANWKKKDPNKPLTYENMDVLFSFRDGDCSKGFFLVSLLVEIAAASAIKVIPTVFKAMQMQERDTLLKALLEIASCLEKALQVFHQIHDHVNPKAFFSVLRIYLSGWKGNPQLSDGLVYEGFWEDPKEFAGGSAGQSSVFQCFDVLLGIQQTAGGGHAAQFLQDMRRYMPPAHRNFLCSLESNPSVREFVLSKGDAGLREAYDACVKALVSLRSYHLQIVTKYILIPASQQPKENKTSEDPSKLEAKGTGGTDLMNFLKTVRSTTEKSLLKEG
# Method: A431 cells (3.0×10^5 cells/mL) suspended in a culture medium for assay (D-MEM; Wako 040-30095, 5% FBS, 50 units/mL penicillin, 50 μg/mL streptomycin, and 2 mM L-glutamine) were inoculated at 100 μL/well to a transparent 96-well flat-bottomed plate and cultured at 37° C. for 24 hours in 5% CO2. The culture medium was removed from the cells thus cultured. A tryptophan-containing culture medium (culture medium for assay supplemented with 178 μM L-tryptophan) was added at 80 μL/well, and further, a compound solution was added at 10 μL/well. The cells were preincubated for 1 hour. Then, the whole amount was brought to 100 μL/well by the addition of 10 μL/well of IFN-γ diluted into 100 ng/mL with a tryptophan-containing culture medium, and the cells were cultured for 24 hours. After the culture, absorbance was measured at 460 nm using SpectraMax MSSK (Molecular Devices, LLC) (background measurement). After the measurement, a kynurenine quantification reagent (prepared with 7% [v/v] aqueous trichloroacetic acid solution and a solution of 2% [w/v] p-dimethylbenzaldehyde in acetic acid at 2:5 [v/v]) was added at 200 μL/well and reacted for 5 minutes, followed by the measurement of absorbance at 460 nm again. The rate of kynurenine production was calculated according to the following expression. Rate of kynurenine production (%) for each compound in the case of using A431 cells={(Absorbance at 460 nm in the tryptophan-containing culture medium comprising the A431 cells and the solution of the compound of the present invention−Absorbance of the background)/(Absorbance at 460 nm in the tryptophan-containing culture medium without the addition of the compound solution−Absorbance of the background)}×100 TDO Cell-Based Assay Protocol
# TDO in A172 cells = target: T2, TDO in A172 cells (Homo sapiens, UniProt P48775); assay: TDO cell-based assay, kynurenine production in A172 cells; conditions: A 172; final concentration of the compound 10 μM; rate relative to culture without compound
# T2 construct: endogenous in cells; host or cells: A172 cells
# T2 sequence (P48775 whole entry): as the sequence (P48775 whole entry) above
# Method: A172 cells (3.0×10^5 cells/mL) suspended in a culture medium for assay (PRMI-1640; Wako 186-02155, 5% FBS, 50 units/mL penicillin, and 50 μg/mL streptomycin) were inoculated at 100 μL/well to a transparent 96-well flat-bottomed plate and cultured at 37° C. for 24 hours in 5% CO2. The culture medium was removed from the cells thus cultured. A culture medium for assay was added at 80 μL/well, and further, a compound solution was added at 10 μL/well. The cells were preincubated for 1 hour. Then, the whole amount was brought to 100 μL/well by the addition of 10 μL/well of a 5 mM aqueous tryptophan solution (final concentration of L-tryptophan: 524 μM), and the cells were cultured for 24 hours. After the culture, absorbance was measured at 460 nm using SpectraMax MSSK (Molecular Devices, LLC) (background measurement). After the measurement, a kynurenine quantification reagent (prepared with 7% [v/v] aqueous trichloroacetic acid solution and a solution of 2% [w/v] p-dimethylbenzaldehyde in acetic acid at 2:5 [v/v]) was added at 200 μL/well and reacted for 5 minutes, followed by the measurement of absorbance at 460 nm again. The rate of kynurenine production was calculated according to the following expression. Rate of kynurenine production (%) for each compound in the case of using A172 cells={(Absorbance at 460 nm in the tryptophan-containing culture medium comprising the A172 cells and the solution of the compound of the present invention−Absorbance of the background)/(Absorbance at 460 nm in the tryptophan-containing culture medium without the addition of the compound solution−Absorbance of the background)}×100
# Chain of rhIDO (recombinant human IDO) (P14902 whole entry): as the sequence (P14902 whole entry) above
Compound,remaining activity at 10 µM [1] [%],remaining activity at 10 µM [2] [%],remaining activity at 10 µM (IDO in A431 cells) [%],remaining activity at 10 µM (TDO in A172 cells) [%]
"FC(F)(F)c1ccc(CSC2=NCN(CCc3ccc(Cl)c(Cl)c3)CN2)c(CSC2=NCN(CCc3ccc(Cl)c(Cl)c3)CN2)c1 [Compound 47, 6,6′-(((4-(Trifluoromethyl)-1,2-phenylene)bis(methylene))bis(sulfanediyl))bis(3-(3,4-dichlorophenethyl)-1,2,3,4-tetrahydro-1,3,5-triazine)]",16,53,15,45
"N#Cc1ccc(CNC(=O)c2ccc(Br)cc2CS/C(N)=N/c2ccc(Br)cc2)cc1 [Compound 87, 5-Bromo-2-((4-cyanobenzyl)carbamoyl)benzyl (E)-N′-(4-bromophenyl)carbamimidothioate hydrobromide]",75,51,67,13
"FC(F)(F)c1ccc(CCN2CN=C(SCc3cc(Cl)c(Cl)cc3CSC3=NCN(CCc4ccc(C(F)(F)F)cc4)CN3)NC2)cc1 [Compound 143, 6,6′-(((4,5-Dichloro-1,2-phenylene)bis(methylene))bis(sulfanediyl))bis(3-(4-(trifluoromethyl)phenethyl)-1,2,3,4-tetrahydro-1,3,5-triazine)]",17,6,9,7
"Cc1ccc(C)c(CCN2CN=C(SCc3ccccc3CSC3=NCN(CCc4cc(C)ccc4C)CN3)NC2)c1 [Compound 24, 1,2-bis(((5-(2,5-dimethylphenethyl)-1,4,5,6-tetrahydro-1,3,5-triazin-2-yl)thio)methyl)benzene]",27,25,4,-2
"Cc1ccc(C)c(CN2CN=C(SCc3ccccc3CSC3=NCN(Cc4cc(C)ccc4C)CN3)NC2)c1 [Compound 44, 1,2-Bis(((5-(2,5-dimethylbenzyl)-1,4,5,6-tetrahydro-1,3,5-triazin-2-yl)thio)methyl)benzene]",50,26,11,1
"FC(F)(F)c1cccc(CCN2CN=C(SCc3ccc(Br)cc3CSC3=NCN(CCc4cccc(C(F)(F)F)c4)CN3)NC2)c1 [Compound 149, 6,6′-(((4-Bromo-1,2-phenylene)bis(methylene))bis(sulfanediyl))bis(3-(3-(trifluoromethyl)phenethyl)-1,2,3,4-tetrahydro-1,3,5-triazine)]",8,11,7,17
"N#Cc1ccc(CNC(=O)c2ccc(Br)cc2C[Se]C(=N)N)cc1 [Compound 113, 5-Bromo-2-((4-cyanobenzyl)carbamoyl)benzyl carbamimidoselenoate hydrobromide]",92,58,73,44
"N=C(N)SCc1cc(Br)ccc1C(=O)NCc1ccc(C(F)(F)F)cc1 [Compound 114, 5-Bromo-2-((4-(trifluoromethyl)benzyl)carbamoyl)benzyl carbamimidothioate hydrobromide]",98,36,17,37
"COc1ccc(/N=C(\N)SCc2ccc(F)cc2CS/C(N)=N/c2ccc(OC)cc2)cc1 [Compound 128, (4-Fluoro-1,2-phenylene)bis(methylene) (E,E)-bis(N′-(4-methoxyphenyl)carbamimidothioate) dihydrobromide]",3,14,11,8
"N/C(=N\c1ccc(F)c(Cl)c1)SCc1ccc(F)cc1CS/C(N)=N/c1ccc(F)c(Cl)c1 [Compound 129, (4-Fluoro-1,2-phenylene)bis(methylene) (E,E)-bis(N′-(3-chloro-4-fluorophenyl)carbamimidothioate) dihydrobromide]",-2,8,7,14
"Clc1ccc(CCN2CN=C(SCc3cc(Cl)c(Cl)cc3CSC3=NCN(CCc4ccc(Cl)c(Cl)c4)CN3)NC2)cc1Cl [Compound 38, 6,6′-(((4,5-Dichloro-1,2-phenylene)bis(methylene))bis(sulfanediyl))bis(3-(3,4-dichlorophenethyl)-1,2,3,4-tetrahydro-1,3,5-triazine)]",16,37,2,-1

# Source: US12209079B2 (GENERAL INCORPORATED ASSOCIATION PHARMA VALLEY PROJECT …, priority 2017, dated 2025)
